In US10828315B2 (Madrigal Pharmaceuticals, Inc., priority 2013, dated 2020):

What was measured:
[1] = Physical appearance of SDC-TRAP-0063 formulations and infusion solutions with different diluents and carbonate buffers; assay type: physicochemical
Experimental: First, a stock solution of SDC-TRAP-0063 was prepared in DMSO at 22 mg/mL, then the required amount of tween 80 was added and mixed well.
The above formulation containing SDC-TRAP-0063 was diluted using either D5W, D5W (pH 10.5, adjusted with 4.55 mM NaOH) or carbonate buffer, pH 10) (final drug concentration.: 1 mg/mL SDC-TRAP-0063, 1.8% v/v Tween 80, 5% v/v DMSO). The physical observations on these solutions were noted before and filtration through 0.22μ PES filter and were further observed for 3 hr. Refer to the table below for summary of observations. Note: Carbonate buffer, pH 10 was prepared by mixing 0.1M sodium carbonate (27.5 mL) and 0.1M sodium bicarbonate (22.5 mL) and qs 200 mL with DIW. The total Na content of carbonate buffer was 39 mM.
A stock solution of SDC-TRAP-0063 was prepared in either DMSO or PEG-300. To prepare formulations containing DMSO and tween 80, required amount of tween 80 added to the stock of DMSO (containing SDC-TRAP-0063). The formulations were then was diluted with carbonate buffer, pH 10 (composition: add and mix 0.1M sodium carbonate (27.5 mL) and 0.1M sodium bicarbonate (22.5 mL) and qs 200 mL with DIW). The samples (prepared in glass vial) were mixed well and observed for physical appearance while stirring on a magnetic stirring plate at ambient. (Note-appropriate amounts of SDC-TRAP-0063, tween 80, DMSO and PEG-300, as applicable were used to prepare the solutions at the desired concentrations and drug concentrations at 1 mg/mL through 5 mg/mL as shown).
Carbonate buffers of different pH (pH 9-10) and ionic strengths (with higher (>2) Na contents that SDC-TRAP-0063 on molar basis) were prepared and used for diluting the DMSO/tween 80 formulation loaded with SDC-TRAP-0063 (as described in earlier section 3). The final concentrations of DMSO and tween 80 in the diluted carbonate buffer were 5% v/v and 1.8% v/v respectively. The drug concentration was kept constant (5 mg/mL) for all diluted samples.

[2] = test system: human breast cancer cell line BT-474; test: Cytotoxicity assay (CellTiter-Glo, 72 h), BT-474; assay type: cell-based; conditions: BT-474, 72 hours, read-out: Cytotoxicity (IC50, nM) BT-474
Experimental: Cytotoxicity of SDC-TRAP molecules was determined in three cancer cell lines. […] 80 μL of CellTiter-Glo was added to each well, followed by room temperature incubation in the dark for 15 minutes. Cell was determined by luminescence. IC50 was calculated using XLfit™ software.

## CCc1c2c(nc3ccc(OC(=O)N4CCC(CCn5ccc6cc(-n7c(O)nnc7-c7cc(C(C)C)c(O)cc7O)ccc65)CC4)cc13)-c1cc3c(c(=O)n1C2)COC(=O)[C@]3(O)CC [SDC-TRAP-0063, 4,11-diethyl-4-hydroxy-3,14-dioxo-3,4,12,14-tetrahydro-1H-pyrano[3′,4′:6,7]indolizino[1,2-b]quinolin-9-yl 4-(2-(5-(3-(2,4-dihydroxy-5-isopropylphenyl)-5-hydroxy-4H-1,2,4-triazol-4-yl)-1H-indol-1-yl)ethyl)piperidine-1-carboxylate]
[1]; 5% v/v DMSO, carbonate buffer pH 10 (39 mM Na), 1 mg/mL, 1 h
  Observations (physical appearance): Cloudy
[1]; 5% v/v DMSO, carbonate buffer pH 10 (39 mM Na), 1 mg/mL, 6 h
  Observations (physical appearance): Cloudy
[1]; 5% v/v DMSO, carbonate buffer pH 10 (39 mM Na), 1 mg/mL, Initial
  Observations (physical appearance): Cloudy
[1]; 5% v/v DMSO, carbonate buffer pH 10 (39 mM Na), 1 mg/mL, Overnight
  Observations (physical appearance): Clear yellow solution
[1]; 5% v/v DMSO, carbonate buffer pH 10 (39 mM Na), 2 mg/mL, 30 min
  Observations (physical appearance): Cloudy
[1]; 5% v/v DMSO, carbonate buffer pH 10 (39 mM Na), 2 mg/mL, 1 h
  Observations (physical appearance): Cloudy
[1]; 5% v/v DMSO, carbonate buffer pH 10 (39 mM Na), 2 mg/mL, 6 h
  Observations (physical appearance): Cloudy
[1]; 5% v/v DMSO, carbonate buffer pH 10 (39 mM Na), 2 mg/mL, Initial
  Observations (physical appearance): Cloudy
[1]; 5% v/v DMSO, carbonate buffer pH 10 (39 mM Na), 2 mg/mL, Overnight
  Observations (physical appearance): Opaque (less cloudy than at 6 h)
[1]; 5% v/v DMSO, carbonate buffer pH 10 (39 mM Na), 3 mg/mL, 30 min
  Observations (physical appearance): Cloudy
[1]; 5% v/v DMSO, carbonate buffer pH 10 (39 mM Na), 3 mg/mL, 1 h
  Observations (physical appearance): Cloudy
[1]; 5% v/v DMSO, carbonate buffer pH 10 (39 mM Na), 3 mg/mL, 6 h
  Observations (physical appearance): Cloudy
[1]; 5% v/v DMSO, carbonate buffer pH 10 (39 mM Na), 3 mg/mL, Initial
  Observations (physical appearance): Cloudy
[1]; 5% v/v DMSO, carbonate buffer pH 10 (39 mM Na), 3 mg/mL, Overnight
  Observations (physical appearance): Cloudy
[1]; 5% v/v DMSO, carbonate buffer pH 10 (39 mM Na), 4 mg/mL, 30 min
  Observations (physical appearance): Cloudy
[1]; 5% v/v DMSO, carbonate buffer pH 10 (39 mM Na), 4 mg/mL, 1 h
  Observations (physical appearance): Cloudy
[1]; 5% v/v DMSO, carbonate buffer pH 10 (39 mM Na), 4 mg/mL, 6 h
  Observations (physical appearance): Cloudy
[1]; 5% v/v DMSO, carbonate buffer pH 10 (39 mM Na), 4 mg/mL, Initial
  Observations (physical appearance): Cloudy
[1]; 5% v/v DMSO, carbonate buffer pH 10 (39 mM Na), 4 mg/mL, Overnight
  Observations (physical appearance): Cloudy
[1]; 5% v/v DMSO, carbonate buffer pH 10 (39 mM Na), 5 mg/mL, 30 min
  Observations (physical appearance): Cloudy
[1]; 5% v/v DMSO, carbonate buffer pH 10 (39 mM Na), 5 mg/mL, 1 h
  Observations (physical appearance): Cloudy
[1]; 5% v/v DMSO, carbonate buffer pH 10 (39 mM Na), 5 mg/mL, 6 h
  Observations (physical appearance): Cloudy
[1]; 5% v/v DMSO, carbonate buffer pH 10 (39 mM Na), 5 mg/mL, Initial
  Observations (physical appearance): Cloudy
[1]; 5% v/v DMSO, carbonate buffer pH 10 (39 mM Na), 5 mg/mL, Overnight
  Observations (physical appearance): Cloudy
[1]; DMSO alone 5% v/v, 2 mg/mL through 5 mg/mL
  physical appearance after dilution with carbonate buffer, pH 10: stayed cloudy for more than 24 h
[1]; PEG-300 formulations, 1 mg/mL and 2 mg/mL
  physical appearance after dilution with carbonate buffer, pH 10: appeared clear at 30 mm and 1 hr of stirring respectively
[1]; PEG-300 formulations, 3 mg/mL, 4 mg/mL and 5 mg/mL
  physical appearance after dilution with carbonate buffer, pH 10: took longer and were clear next day
[1]; […] v/v PEG-300, carbonate buffer pH 10 (39 mM Na), 1 mg/mL, 30 min
  Observations (physical appearance): clear,
[1]; […] v/v PEG-300, carbonate buffer pH 10 (39 mM Na), 1 mg/mL, 1 h
  Observations (physical appearance): clear, yellow
[1]; […] v/v PEG-300, carbonate buffer pH 10 (39 mM Na), 1 mg/mL, 2 h
  Observations (physical appearance): clear, yellow
[1]; […] v/v PEG-300, carbonate buffer pH 10 (39 mM Na), 1 mg/mL, Initial
  Observations (physical appearance): slightly
[1]; […] v/v PEG-300, carbonate buffer pH 10 (39 mM Na), 1 mg/mL, Overnight
  Observations (physical appearance): clear, yellow
[1]; […] v/v PEG-300, carbonate buffer pH 10 (39 mM Na), 2 mg/mL, 30 min
  Observations (physical appearance): Translucent
[1]; […] v/v PEG-300, carbonate buffer pH 10 (39 mM Na), 2 mg/mL, 1 h
  Observations (physical appearance): clear, yellow
[1]; […] v/v PEG-300, carbonate buffer pH 10 (39 mM Na), 2 mg/mL, 2 h
  Observations (physical appearance): clear, yellow
[1]; […] v/v PEG-300, carbonate buffer pH 10 (39 mM Na), 2 mg/mL, Initial
  Observations (physical appearance): cloudy
[1]; […] v/v PEG-300, carbonate buffer pH 10 (39 mM Na), 2 mg/mL, Overnight
  Observations (physical appearance): clear, yellow
[1]; […] v/v PEG-300, carbonate buffer pH 10 (39 mM Na), 3 mg/mL, 30 min
  Observations (physical appearance): cloudy
[1]; […] v/v PEG-300, carbonate buffer pH 10 (39 mM Na), 3 mg/mL, 1 h
  Observations (physical appearance): cloudy
[1]; […] v/v PEG-300, carbonate buffer pH 10 (39 mM Na), 3 mg/mL, 2 h
  Observations (physical appearance): cloudy
[1]; […] v/v PEG-300, carbonate buffer pH 10 (39 mM Na), 3 mg/mL, Initial
  Observations (physical appearance): cloudy
[1]; […] v/v PEG-300, carbonate buffer pH 10 (39 mM Na), 3 mg/mL, Overnight
  Observations (physical appearance): clear, yellow
[1]; […] v/v PEG-300, carbonate buffer pH 10 (39 mM Na), 4 mg/mL, 30 min
  Observations (physical appearance): cloudy
[1]; […] v/v PEG-300, carbonate buffer pH 10 (39 mM Na), 4 mg/mL, 1 h
  Observations (physical appearance): cloudy
[1]; […] v/v PEG-300, carbonate buffer pH 10 (39 mM Na), 4 mg/mL, 2 h
  Observations (physical appearance): cloudy
[1]; […] v/v PEG-300, carbonate buffer pH 10 (39 mM Na), 4 mg/mL, Initial
  Observations (physical appearance): cloudy
[1]; […] v/v PEG-300, carbonate buffer pH 10 (39 mM Na), 4 mg/mL, Overnight
  Observations (physical appearance): clear, yellow
[1]; […] v/v PEG-300, carbonate buffer pH 10 (39 mM Na), 5 mg/mL, 30 min
  Observations (physical appearance): cloudy
[1]; […] v/v PEG-300, carbonate buffer pH 10 (39 mM Na), 5 mg/mL, 1 h
  Observations (physical appearance): cloudy
[1]; […] v/v PEG-300, carbonate buffer pH 10 (39 mM Na), 5 mg/mL, 2 h
  Observations (physical appearance): cloudy
[1]; […] v/v PEG-300, carbonate buffer pH 10 (39 mM Na), 5 mg/mL, Initial
  Observations (physical appearance): cloudy
[1]; […] v/v PEG-300, carbonate buffer pH 10 (39 mM Na), 5 mg/mL, Overnight
  Observations (physical appearance): clear, yellow
[1]; carbonate buffer pH about 10, high ionic strength, […] v/v tween 80 and 5% v/v DMSO
  achievable drug concentration in solution: at least 5 mg/mL
[1]; high ionic strength carbonate buffer at pH 9.5, 5 mg/mL
  time to clear solution: ≤ 3 h
[1]; pH 9.3 and pH 9.5, 5% v/v DMSO + […] v/v tween 80, 5 mg/mL
  physical appearance in lower pH carbonate buffers: remain cloudy even after stirring overnight
[2]
  IC50: 320 nM
